Laboratory results from ChEMBL document CHEMBL1135163, “Design, synthesis, and evaluation of postulated transient intermediate and substrate analogues as inhibitors of 4-hydroxyphenylpyruvate dioxygenase” (Bioorg Med Chem Lett, 2002).
pIC50: −log10 of the molar value.

The compounds below were run against 4-hydroxyphenylpyruvate dioxygenase (Sus scrofa, UniProt Q02110) (assay: In vitro inhibition against of 4-Hydroxyphenylpyruvate dioxygenase (4-HPPD) from pig liver by the enol borate method).
4-hydroxyphenylpyruvate dioxygenase, sequence (Q02110 whole entry): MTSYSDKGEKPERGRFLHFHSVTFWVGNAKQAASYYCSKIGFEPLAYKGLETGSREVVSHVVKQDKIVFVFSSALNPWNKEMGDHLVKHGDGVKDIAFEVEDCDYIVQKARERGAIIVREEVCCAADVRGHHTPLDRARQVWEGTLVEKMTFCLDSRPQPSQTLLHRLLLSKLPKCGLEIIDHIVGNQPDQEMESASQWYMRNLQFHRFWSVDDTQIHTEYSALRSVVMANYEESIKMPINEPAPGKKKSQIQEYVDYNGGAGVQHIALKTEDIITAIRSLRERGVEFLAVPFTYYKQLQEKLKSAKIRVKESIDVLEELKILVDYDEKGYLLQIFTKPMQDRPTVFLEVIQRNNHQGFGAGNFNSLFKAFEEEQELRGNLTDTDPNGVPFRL

Row | Structure (SMILES) | pIC50
1 | CCOC(=O)COc1ccc(O)cc1 | 4.14
2 | COC(=O)C1OC1(C)c1ccccc1 (stereo unspecified) | 3.92
3 | O=C1OCC(c2ccccc2)=C1O | 6.30
4 | O=C(O)COc1ccc(O)cc1 | 5.22
5 | CC(Oc1ccc(O)cc1)C(=O)O (stereo unspecified) | 4.03
6 | C=C(c1ccccc1)C(O)C(=O)OC (stereo unspecified) | < 3.05
7 | C=C(c1ccccc1)C(O)C(=O)O (stereo unspecified) | < 3.05
8 | CCOC(=O)C(C)Oc1ccc(O)cc1 (stereo unspecified) | 3.23
9 | COC(=O)CC12OC1C(=O)C(OC)=CC2=O (stereo unspecified) | 3.30
10 | COC(=O)COc1ccc(O)cc1 | 3.65
11 | COC(=O)CC1=CC(=O)C(OC)=CC1=O | 3.82
